Laboratory results from patent publication US7138428B2, “Compounds isolated from gamboge resin having activity in inhibiting the growth of tumor/cancer cells and pharmaceutical compositions comprising the same” (Taiwan Sunpan Biotechnology Development Company, Ltd., priority 2004, dated 2006).

Columns and labels:
[1] = test system: tumor/cancer cells; assay: in vitro anti-cancer tests, overall statements; assay type: cell-based, human; conditions: summary of in vitro results
[2] = test system: A549 (lung cancer); assay: cells; conditions: for IC50 (50% cell growth inhibition concentration) / LC50 (50% cell destroying lethal concentration): A549
From the text: (§1) The cancer cell growth inhibition test was primarily used to detect the effect of a candidate drug on cancer cell proliferation. The working principle involved therein is the ability of viable cells to shift alamarBlue (Biosource, USA) from its originally non-fluorescent oxidized state to a reduced form (fluorescent, red) having fluorescence via metabolic reaction. According to the fluorescent data result generated by the alamarBlue reagent thus obtained, the proliferation of the viable cells and cell activity can be quantified for detection.
(§2) In this experiment, the assay concentrations of the candidate drug were set to be 0.01, 0.1, 1, 10, and 100 μg/ml, and the following cell lines were used: 6 human cancer cells MCF-7 (breast cancer), HT-29 (colon cancer), HL-60 (leukemia), HepG2 (liver cancer), A549 (lung cancer), and U937 (lymphoma cancer), and a normal human umbilical venal epithelial cell (HUVEC).
(§3) In order to further understand the bioactivity of the products TSB-0 to TSB-8 of this invention when they are used in combination, mixture formulations TSB-9, TSB-10, TSB-11, TSB-12 and TSB-13 were prepared according to Table 4 below.

[3] = test system: HL-60 (leukemia); assay: cells; conditions: for IC50 (50% cell growth inhibition concentration) / LC50 (50% cell destroying lethal concentration): HL-60
From the text: as §1, §2, §3

[4] = test system: HT-29 (colon cancer); assay: cells; conditions: for IC50 (50% cell growth inhibition concentration) / LC50 (50% cell destroying lethal concentration): HT-29
From the text: as §1, §2, §3

[5] = test system: HepG2 (liver cancer); assay: cells; conditions: for IC50 (50% cell growth inhibition concentration) / LC50 (50% cell destroying lethal concentration): HepG2
From the text: as §1, §2, §3

[6] = test system: MCF-7 (breast cancer); assay: cells; conditions: for IC50 (50% cell growth inhibition concentration) / LC50 (50% cell destroying lethal concentration): MCF-7
From the text: as §1, §2, §3

[7] = test system: U937 (lymphoma cancer); assay: cells; conditions: for IC50 (50% cell growth inhibition concentration) / LC50 (50% cell destroying lethal concentration): U937
From the text: as §1, §2, §3

[8] = test system: normal human umbilical venal epithelial cell (HUVEC)
From the text: as §1, §2, §3

[9] = body weights of tumor-bearing test animals; assay type: in vivo, mice; conditions: 2 mg/kg × 5
Description: Mixture formulation TSB-9 was further subjected to an animal test, in which female mice (6–8 weeks old, weighing 20–22 grams) originally from C.B-17/Icr background and having Severe Combined Immune Deficiency (SCID) were used.
Human breast cancer cells MCF-7 (ATCC HTB-22) (1×10^7 cells/0.2 ml) were implanted subcutaneously into the dorsal side of the mice, and 50 μg/mouse of estradiol benzoate (Sigma, USA) was injected subcutaneously into the mice weekly as supplement for a total of 4 weeks. When the tumor growth reached ≧5 mm in diameter (that very day was denoted as day 1), tumor-bearing nude mice were randomly divided into 4 groups (6 mice in each group).
Mixture formulation TSB-9 was dissolved in 10% DMSO, and was administered orally to the mice every day at two dosages 40 mg/kg and 80 mg/kg, respectively, for a total of 21 consecutive days. […] This treatment group served as a positive control.
Measurements were taken once every 4 days during the experiment periods, and were recorded.

C=C(C)[C@@H]1CC[C@]2(C(=O)O)CC[C@]3(C)[C@H](CC[C@@H]4[C@@]5(C)CC[C@H](O)C(C)(C)[C@@H]5CC[C@]43C)[C@@H]12 [TSB-1, betulinic acid]
effect of inhibiting tumor/cancer cell growth (in words) [1]: may not be as effective as products TSB-2 to TSB-8

CC(C)=CCC[C@]1(C)C=Cc2c(O)c3c(c(CC=C(C)C)c2O1)O[C@]12C(=C[C@@H]4C[C@H]1C(C)(C)O[C@@]2(C/C=C(/C)C(=O)O)C4=O)C3=O [TSB-5, gambogic acid]
IC50 (50% cell growth inhibition concentration) [2]: 0.8 µg/mL | LC50 (50% cell destroying lethal concentration) [2]: 2.9 µg/mL | IC50 (50% cell growth inhibition concentration) [3]: 0.50 µg/mL | LC50 (50% cell destroying lethal concentration) [3]: 5.2 µg/mL | IC50 (50% cell growth inhibition concentration) [4]: 4.5 µg/mL | LC50 (50% cell destroying lethal concentration) [4]: 7.1 µg/mL | IC50 (50% cell growth inhibition concentration) [5]: 0.83 µg/mL | LC50 (50% cell destroying lethal concentration) [5]: 2.7 µg/mL | IC50 (50% cell growth inhibition concentration) [6]: 0.83 µg/mL | LC50 (50% cell destroying lethal concentration) [6]: 2.7 µg/mL | IC50 (50% cell growth inhibition concentration) [7]: 0.65 µg/mL | LC50 (50% cell destroying lethal concentration) [7]: 3.1 µg/mL | IC50 (50% cell growth inhibition concentration) [8]: 0.87 µg/mL | LC50 (50% cell destroying lethal concentration) [8]: 3.6 µg/mL

CO[C@@]12[C@H](COC(N)=O)C3=C(C(=O)C(C)=C(N)C3=O)N1C[C@@H]1N[C@@H]12 [mitomycin]
Weight (g) (mean ± SEM) ([9]; Day 1): 22.5 ± 0.6 g | Weight (g) (mean ± SEM) ([9]; Day 5): 20.8 ± 0.3 g | Weight (g) (mean ± SEM) ([9]; Day 9): 19.3 ± 0.4 g | Weight (g) (mean ± SEM) ([9]; Day 13): 19.2 ± 0.3 g | Weight (g) (mean ± SEM) ([9]; Day 17): 18.5 ± 0.2 g | Weight (g) (mean ± SEM) ([9]; Day 21): 17.5 ± 0.2 g | Weight (g) (mean ± SEM) ([9]; Day 25): 16.7 ± 0.2 g | Weight (g) (mean ± SEM) ([9]; Day 29): 16.7 ± 0.4 g

CC(C)=CCc1c2c(c(O)c3c1O[C@]14C(=C[C@@H]5C[C@H]1C(C)(C)O[C@@]4(C/C=C(/C)C(=O)O)C5=O)C3=O)C=CC(C)(C)O2 [TSB-7, morellic acid]
IC50 (50% cell growth inhibition concentration) [2]: 0.76 µg/mL | LC50 (50% cell destroying lethal concentration) [2]: 3.4 µg/mL | IC50 (50% cell growth inhibition concentration) [3]: 1.2 µg/mL | LC50 (50% cell destroying lethal concentration) [3]: 5.6 µg/mL | IC50 (50% cell growth inhibition concentration) [4]: 2.8 µg/mL | LC50 (50% cell destroying lethal concentration) [4]: 7.2 µg/mL | IC50 (50% cell growth inhibition concentration) [5]: 1.7 µg/mL | LC50 (50% cell destroying lethal concentration) [5]: 3.9 µg/mL | IC50 (50% cell growth inhibition concentration) [6]: 0.98 µg/mL | LC50 (50% cell destroying lethal concentration) [6]: 6.2 µg/mL | IC50 (50% cell growth inhibition concentration) [7]: 1.6 µg/mL | LC50 (50% cell destroying lethal concentration) [7]: 4.8 µg/mL | IC50 (50% cell growth inhibition concentration) [8]: 0.88 µg/mL | LC50 (50% cell destroying lethal concentration) [8]: 4.8 µg/mL

CC(C)=CCc1c2c(c(O)c3c1OC14C(=CC5CC1C(C)(C)OC4(C/C=C(\C)CO)C5=O)C3=O)C=CC(C)(C)O2 (centres unmarked) [TSB-6, isomorellinol]
IC50 (50% cell growth inhibition concentration) [2]: 2.0 µg/mL | LC50 (50% cell destroying lethal concentration) [2]: 9.6 µg/mL | IC50 (50% cell growth inhibition concentration) [3]: 1.4 µg/mL | LC50 (50% cell destroying lethal concentration) [3]: 6.2 µg/mL | IC50 (50% cell growth inhibition concentration) [4]: 5.2 µg/mL | LC50 (50% cell destroying lethal concentration) [4]: 8.5 µg/mL | IC50 (50% cell growth inhibition concentration) [5]: 1.2 µg/mL | LC50 (50% cell destroying lethal concentration) [5]: 3.0 µg/mL | IC50 (50% cell growth inhibition concentration) [6]: 0.90 µg/mL | LC50 (50% cell destroying lethal concentration) [6]: 5.8 µg/mL | IC50 (50% cell growth inhibition concentration) [7]: 1.3 µg/mL | LC50 (50% cell destroying lethal concentration) [7]: 3.8 µg/mL | IC50 (50% cell growth inhibition concentration) [8]: 1.5 µg/mL | LC50 (50% cell destroying lethal concentration) [8]: 9.3 µg/mL

CC(C)=CCc1c2c(c(O)c3c1O[C@@]14C(=C[C@H]5CC1C(C)(C)O[C@]4(CC=C(C)C)C5=O)C3=O)C=CC(C)(C)O2 [TSB-8, desoxymorellin]
IC50 (50% cell growth inhibition concentration) [2]: 4.8 µg/mL | LC50 (50% cell destroying lethal concentration) [2]: 56 µg/mL | IC50 (50% cell growth inhibition concentration) [3]: 6.5 µg/mL | LC50 (50% cell destroying lethal concentration) [3]: >100 µg/mL | IC50 (50% cell growth inhibition concentration) [4]: 6.7 µg/mL | LC50 (50% cell destroying lethal concentration) [4]: 69 µg/mL | IC50 (50% cell growth inhibition concentration) [5]: 3.9 µg/mL | LC50 (50% cell destroying lethal concentration) [5]: 31 µg/mL | IC50 (50% cell growth inhibition concentration) [6]: 5.3 µg/mL | LC50 (50% cell destroying lethal concentration) [6]: 83 µg/mL | IC50 (50% cell growth inhibition concentration) [7]: 6.2 µg/mL | LC50 (50% cell destroying lethal concentration) [7]: >100 µg/mL | IC50 (50% cell growth inhibition concentration) [8]: 2.8 µg/mL | LC50 (50% cell destroying lethal concentration) [8]: 40 µg/mL

C=C(C)[C@@H]1CC[C@]2(CO)CC[C@]3(C)[C@H](CC[C@@H]4[C@@]5(C)CC[C@H](O)C(C)(C)[C@@H]5CC[C@]43C)[C@@H]12 [TSB-0, betulin]
effect of inhibiting tumor/cancer cell growth (in words) [1]: may not be as effective as products TSB-2 to TSB-8

CC(C)=CCC[C@]1(C)C=Cc2c(O)c3c(c(CC=C(C)C)c2O1)O[C@]12C(=C[C@@H]4C[C@H]1C(C)(C)O[C@@]2(C/C=C(\C)C(=O)O)C4=O)C3=O [TSB-3, isogambogic acid]
IC50 (50% cell growth inhibition concentration) [2]: 0.88 µg/mL | LC50 (50% cell destroying lethal concentration) [2]: 4.8 µg/mL | IC50 (50% cell growth inhibition concentration) [3]: 0.97 µg/mL | LC50 (50% cell destroying lethal concentration) [3]: 4.6 µg/mL | IC50 (50% cell growth inhibition concentration) [4]: 6.4 µg/mL | LC50 (50% cell destroying lethal concentration) [4]: 8.8 µg/mL | IC50 (50% cell growth inhibition concentration) [5]: 1.2 µg/mL | LC50 (50% cell destroying lethal concentration) [5]: 1.9 µg/mL | IC50 (50% cell growth inhibition concentration) [6]: 1.6 µg/mL | LC50 (50% cell destroying lethal concentration) [6]: 4.3 µg/mL | IC50 (50% cell growth inhibition concentration) [7]: 0.82 µg/mL | LC50 (50% cell destroying lethal concentration) [7]: 3.1 µg/mL | IC50 (50% cell growth inhibition concentration) [8]: 1.1 µg/mL | LC50 (50% cell destroying lethal concentration) [8]: 5.2 µg/mL

CC(C)=CCc1c(O)cc(O)c2c(=O)c3cc4c(c(O)c3oc12)OC(C)(C)C=C4 [TSB-4, 7,9,12-trihydroxy-2,2-dimethyl-10-(3-methyl-but-2-enyl)-2H-pyrano[3,2-b]xanthen-6-one]
CC50 ([2]; Homo sapiens, A549, read-out: LC50 (50% cell destroying lethal concentration)): 21 µg/mL | CC50 ([3]; Homo sapiens, HL-60, read-out: LC50 (50% cell destroying lethal concentration)): 42 µg/mL | CC50 ([4]; Homo sapiens, HT-29, read-out: LC50 (50% cell destroying lethal concentration)): 59 µg/mL | CC50 ([5]; Homo sapiens, HepG2, read-out: LC50 (50% cell destroying lethal concentration)): 24 µg/mL | CC50 ([6]; Homo sapiens, MCF7, read-out: LC50 (50% cell destroying lethal concentration)): 40 µg/mL | CC50 ([7]; Homo sapiens, U-937, read-out: LC50 (50% cell destroying lethal concentration)): 28 µg/mL | LC50 (50% cell destroying lethal concentration) [8]: 21 µg/mL

CC(C)=CCc1c2c(c(O)c3c1OC14C(=CC5CC1C(C)(C)OC4(C/C=C(\C)C(=O)O)C5=O)C3=O)C=CC(C)(C)O2 (centres unmarked) [TSB-2, isomorellic acid]
IC50 (50% cell growth inhibition concentration) [2]: 1.3 µg/mL | LC50 (50% cell destroying lethal concentration) [2]: 4.6 µg/mL | IC50 (50% cell growth inhibition concentration) [3]: 2.3 µg/mL | LC50 (50% cell destroying lethal concentration) [3]: 43 µg/mL | IC50 (50% cell growth inhibition concentration) [4]: 6.9 µg/mL | LC50 (50% cell destroying lethal concentration) [4]: 12 µg/mL | IC50 (50% cell growth inhibition concentration) [5]: 6.4 µg/mL | LC50 (50% cell destroying lethal concentration) [5]: 33 µg/mL | IC50 (50% cell growth inhibition concentration) [6]: 9.0 µg/mL | LC50 (50% cell destroying lethal concentration) [6]: 24 µg/mL | IC50 (50% cell growth inhibition concentration) [7]: 1.6 µg/mL | LC50 (50% cell destroying lethal concentration) [7]: 6.1 µg/mL | IC50 (50% cell growth inhibition concentration) [8]: 1.7 µg/mL | LC50 (50% cell destroying lethal concentration) [8]: 22 µg/mL
